Source: patent US9555038B2, “Heterocycle-substituted tetracyclic compounds and methods of use thereof for the treatment of viral diseases” (Merck Sharp & Dohme Corp., priority 2013, dated 2017)
Where two headings read alike, the source gives them in different places.

Tests used:
HCV replicon 1A = experiment: Cell-based HCV Replicon Assay A, replicon 1A
How it was run: (§1)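 Readout: replicon RNA by real-time RT-PCR, normalised to co-amplified cyclophilin and quantified against replicon total-RNA standard curves. Cells (2000/well) treated 3 days in medium with 5% FBS and 0.5% DMSO, compound in 10 serial dilutions from starting concentrations of 333.3 nM to 1.667 nM.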

HCV replicon 1AY93H = experiment: Cell-based HCV Replicon Assay A, replicon 1AY93H; settings: read-out: 1A Y93H IC50, replicon 1AY93H
How it was run: as §1

HCV replicon 2B = experiment: Cell-based HCV Replicon Assay A, replicon 2B; settings: read-out: 2B IC50, replicon 2B
How it was run: as §1

HCV replicon 1AQ30D = experiment: Cell-based HCV Replicon Assay B, replicon 1AQ30D
How it was run: (§2)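 EC50 defined as the drug concentration giving a CT increase of 1 above projected baseline, from real-time RT-PCR of replicon RNA using genotype-specific primers and probes. Cells were seeded in 5% FBS, dosed after 24 h and incubated 3 days before lysis.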

HCV replicon 1B = experiment: Cell-based HCV Replicon Assay B, replicon 1B
How it was run: as §2

[1] = read-out: 1A Q30D IC50, replicon 1AQ30D
[2] = Hepatitis C virus, read-out: 1A Q30D IC50 (nM), replicon 1AQ30D

Compound	IC50 (HCV replicon 1A) [pM]	IC50 (HCV replicon 1AY93H) [pM]	IC50 (HCV replicon 2B) [pM]	IC50 (HCV replicon 1AQ30D; [1]) [nM]	IC50 (HCV replicon 1B; Hepatitis C virus) [pM]	IC50 (HCV replicon 1AQ30D; [2]) [nM]	IC50 (HCV replicon 1B) [pM]	IC50 (HCV replicon 1A; Hepatitis C virus) [pM]
COC(=O)NC(C(=O)N1CCC[C@H]1c1ncc(-c2ccc3c(c2)cc2n3C(c3cnc(CC(C)C)s3)Oc3cc(-c4cnc([C@@H]5CCCN5C(=O)[C@@H](NC(=O)OC)C(C)C)[nH]4)cc(F)c3-2)[nH]1)C1CCOC(C)(C)C1 (single isomer, unassigned) [Compound 544]	3.1	5	6	0.051	3.6			
COC(=O)NC(C(=O)N1[C@@H]2C[C@@H]2C[C@H]1c1ncc(-c2ccc3c(c2)cc2n3C(c3cnc(C4CC4)s3)Oc3cc(-c4cnc([C@@H]5CCCN5C(=O)[C@@H](NC(=O)OC)C(C)C)[nH]4)cc(C)c3-2)[nH]1)C1C[C@@H](C)O[C@@H](C)C1 (single isomer, unassigned) [Compound 217]	3.2	8.5	11			0.241	5	
COC(=O)NC(C(=O)N1CCC[C@H]1c1ncc(-c2ccc3c(c2)cc2n3C(c3cnc(C4CC4)s3)Oc3cc(-c4cnc([C@@H]5CCCN5C(=O)[C@@H](NC(=O)OC)C(C)C)[nH]4)cc(F)c3-2)[nH]1)C1C[C@@H](C)O[C@H](C)C1 (single isomer, unassigned) [Compound 304]		123	48	0.954	3			2
CCCc1ncc(C2Oc3cc(-c4cnc([C@@H]5CCCN5C(=O)[C@@H](NC(=O)OC)C(C)C)[nH]4)cc(F)c3-c3cc4cc(-c5cnc([C@@H]6C[C@H]7C[C@H]7N6C(=O)C(NC(=O)OC)C6CCOC(C)(C)C6)[nH]5)ccc4n32)s1 (single isomer, unassigned) [Compound 107]	2.6	29.2	17	0.233			4	
COC(=O)NC(C(=O)N1CCC[C@H]1c1ncc(-c2ccc3c(c2)cc2n3C(c3cnc(C(C)(C)O)s3)Oc3cc(-c4cnc([C@@H]5CCCN5C(=O)[C@@H](NC(=O)OC)C(C)C)[nH]4)cc(F)c3-2)[nH]1)C1C[C@@H](C)O[C@@H](C)C1 (single isomer, unassigned) [Compound 74]	3.6	5.3	5			0.021	4	
COC(=O)N[C@H](C(=O)N1CCC[C@H]1c1ncc(-c2cc(F)c3c(c2)OC(c2cnc(Nc4ccc(F)cc4)s2)n2c-3cc3cc(-c4cnc([C@@H]5CCCN5C(=O)[C@@H](NC(=O)OC)C(C)C)[nH]4)ccc32)[nH]1)C(C)C (single isomer, unassigned) [Compound 535]	3.1	84	12	0.172			3.2	
CCCOCc1ncc(C2Oc3cc(-c4cnc([C@@H]5CCCN5C(=O)[C@@H](NC(=O)OC)C(C)C)[nH]4)cc(F)c3-c3cc4cc(-c5cnc([C@@H]6CCCN6C(=O)[C@@H](NC(=O)OC)C(C)C)[nH]5)ccc4n32)s1 (single isomer, unassigned) [Compound 499]	6.9	223	622	1.09			8.8	
